The results in this text go back to patent publication US9918990B2, “Substituted pyrrolo[2,3-c]pyridines and pyrazolo[3,4-c]pyridines as BET protein inhibitors” (Incyte Corporation, priority 2013, dated 2018).

Where a name gives a salt, the structure may show the parent alone.

In one assay the test system is C-myc. The assay is described as follows: KMS.12.BM C-myc ELISA assay. It counts as cell-based. The settings on record: Homo sapiens; KMS.12.BM cells, 2 hours, concentration required for 50% C-myc inhibition. On the procedure:
KMS.12.BM cell line (human myeloma) was purchased from JCRB (Osaka, Japan) and maintained in RPMI with 10% FBS culture medium. To measure the C-myc inhibitory activity of the compounds, the KMS.12.BM cells are plated in the RPMI culture medium at 75000 cells/well/per 200 μL into a 96-well flat bottom polystyrene tissue culture plate (Corning through VWR, NJ), in the presence or absence of a concentration range of test compounds. After 2 hours, cell are pelleted and lysed with Cell Extraction Buffer (BioSource, Carlsbad, Calif.) in the presence of protease inhibitors (Life Technologies, Grand Island, N.Y. and Sigma, St Louis, Mo.). Clarified lyses are tested in a C-myc commercial ELISA (Life Technologies, Grand Island, N.Y.). Compound inhibition is determined relative to cells cultured with no drug and the IC50 is reported as the compound concentration required for 50% C-myc inhibition. IC50 data for the Examples is presented in Table 10 as determined by Assay C1.
On the technique in general: In an ELISA, binding on a coated surface is turned into a signal by an enzyme label.

For a further assay, the system named is KMS.12.BM cells. The assay is described as follows: KMS.12.BM cell viability assay (Cell Titer-GLO, ATP quantitation). It counts as cell-based. The conditions noted are these: Homo sapiens, 72 h, 3 days, concentration required for 50% cell death, read-out: KMS cellular IC50. The method, then:
KMS.12.BM cell line (human myeloma) was purchased from JCRB (Osaka, Japan) and maintained in RPMI with 10% FBS culture medium. To measure the cytotoxic activity of the compounds through ATP quantitation, the KMS.12.BM cells are plated in the RPMI culture medium at 5000 cells/well/per 100 μL into a 96-well polystyrene clear black tissue culture plate (Greiner-bio-one through VWR, NJ), in the presence or absence of a concentration range of test compounds. After 3 days, […] Cell Titer-GLO Luminescent (Promega, Madison, Wis.) cell culture agent is added to each well for 10 minutes at room temperature to stabilize the luminescent signal. This determines the number of viable cells in culture based on quantitation of the ATP present, which signals the presence of metabolically active cells. Luminescence is measured with the Top Count 384 (Packard Bioscience through Perkin Elmer, Boston, Mass.). Compound inhibition is determined relative to cells cultured with no drug and the IC50 is reported as the compound concentration required for 50% cell death. IC50 data for the Examples is presented in Table 9 as determined by Assay B1.

For another assay, the target named is BRD4-BD1 (Homo sapiens (Human), UniProt O60885). The assay is described as follows: BRD4 AlphaScreen assay, BRD4-BD1. It counts as binding. The settings on record: H4Ac4 peptide, 75 min, room temperature, read-out: BRD4 BD-1 enzyme IC50. The method, then:
(§1) BRD4-BD1 and BRD4-BD2 assays were conducted in white 384-well polystyrene plate in a final volume of 20 μL for BD1 and 40 μL for BD2. Inhibitors were first serially diluted in DMSO and added to the plate wells before the addition of other reaction components. […] After plate sealing, the plate was incubated in the dark at room temperature for 75 min. before reading on a PHERAstar FS plate reader (BMG Labtech). IC50 determination was performed by fitting the curve of percent control activity versus the log of the inhibitor concentration using the GraphPad Prism 5.0 software.
A general note: Bead proximity is the source of the signal in Alpha formats.

A further assay has as its target BRD4-BD2 (Homo sapiens (Human), UniProt O60885). The assay can be described thus: BRD4 AlphaScreen assay, BRD4-BD2. It counts as binding. The settings on record: H4Ac4 peptide, 75 min, room temperature, read-out: BRD4 BD-2 enzyme IC50. On the procedure: as §1

`Cn1cc(-c2ccc3[nH]c(=O)[nH]c3c2Oc2ccc(F)cc2F)c2cc[nH]c2c1=O` [Example 1, 4-(2,4-Difluorophenoxy)-5-(6-methyl-7-oxo-6,7-dihydro-1H-pyrrolo[2,3-c]pyridin-4-yl)-1,3-dihydro-2H-benzimidazol-2-one]: the IC50 – broadly, the midpoint of a concentration-inhibition curve – in the assay on C-myc is not above 1000 nM; in the assay on KMS.12.BM cells it was not above 1000 nM; on BRD4-BD1, less than 100 nM; at BRD4-BD2, less than 100 nM.
As for `Cn1cc(-c2ccc3[nH]cnc3c2Oc2ccc(F)cc2F)c2cc[nH]c2c1=O` [Example 2, 4-[4-(2,4-Difluorophenoxy)-1H-benzimidazol-5-yl]-6-methyl-1,6-dihydro-7H-pyrrolo[2,3-c]pyridin-7-one trifluoroacetate], the IC50 with C-myc is not above 1000 nM; in the assay with KMS.12.BM cells, not above 1000 nM; at BRD4-BD1 it was less than 100 nM; on BRD4-BD2, less than 100 nM.
As to `Cc1nc2c(Oc3ccc(F)cc3F)c(-c3cn(C)c(=O)c4[nH]ccc34)ccc2[nH]1` [Example 3, 4-[4-(2,4-Difluorophenoxy)-2-methyl-1H-benzimidazol-5-yl]-6-methyl-1,6-dihydro-7H-pyrrolo[2,3-c]pyridin-7-one trifluoroacetate], the IC50 in the assay on C-myc was not above 1000 nM; with KMS.12.BM cells, not above 1000 nM; on BRD4-BD1, less than 100 nM; at BRD4-BD2, less than 100 nM.
Take `Cn1cc(-c2ccc3c(ncn3C)c2Oc2ccc(F)cc2F)c2cc[nH]c2c1=O` [Example 4, 4-[4-(2,4-Difluorophenoxy)-1-methyl-1H-benzimidazol-5-yl]-6-methyl-1,6-dihydro-7H-pyrrolo[2,3-c]pyridin-7-one trifluoroacetate]: the IC50 was not above 1000 nM in the assay with C-myc, not above 1000 nM in the assay on KMS.12.BM cells, less than 100 nM at BRD4-BD1 and less than 100 nM on BRD4-BD2.
For the molecule `Cc1nc2c(Oc3ccc(F)cc3F)c(-c3cn(C)c(=O)c4[nH]ccc34)ccc2n1C` [Example 5, 4-[4-(2,4-Difluorophenoxy)-1,2-dimethyl-1H-benzimidazol-5-yl]-6-methyl-1,6-dihydro-7H-pyrrolo[2,3-c]pyridin-7-one trifluoroacetate], the IC50 in the assay with C-myc is not above 1000 nM; in the assay on KMS.12.BM cells, not above 1000 nM; at BRD4-BD1, less than 100 nM; on BRD4-BD2, less than 100 nM.
For the molecule `Cn1cc(-c2ccc3c([nH]c(=O)n3C)c2Oc2ccc(F)cc2F)c2cc[nH]c2c1=O` [Example 6, 4-(2,4-Difluorophenoxy)-1-methyl-5-(6-methyl-7-oxo-6,7-dihydro-1H-pyrrolo[2,3-c]pyridin-4-yl)-1,3-dihydro-2H-benzimidazol-2-one], the IC50 is not above 1000 nM with C-myc, not above 1000 nM in the assay with KMS.12.BM cells, less than 100 nM on BRD4-BD1 and less than 100 nM at BRD4-BD2.
On to `Cn1cc(-c2ccc3c(c2Oc2ccc(F)cc2F)n(C)c(=O)n3C)c2cc[nH]c2c1=O` [Example 7, 4-(2,4-Difluorophenoxy)-1,3-dimethyl-5-(6-methyl-7-oxo-6,7-dihydro-1H-pyrrolo[2,3-c]pyridin-4-yl)-1,3-dihydro-2H-benzimidazol-2-one], for which the IC50 is 1000 to 10000 nM with C-myc, not above 1000 nM in the assay with KMS.12.BM cells, less than 100 nM on BRD4-BD1 and less than 100 nM on BRD4-BD2.
In the case of `Cn1cc(-c2ccc3[nH]nnc3c2Oc2ccc(F)cc2F)c2cc[nH]c2c1=O` [Example 8, 4-[4-(2,4-Difluorophenoxy)-1H-1,2,3-benzotriazol-5-yl]-6-methyl-1,6-dihydro-7H-pyrrolo[2,3-c]pyridin-7-one], the IC50 was not above 1000 nM in the assay on C-myc, not above 1000 nM in the assay on KMS.12.BM cells, less than 100 nM on BRD4-BD1 and less than 100 nM on BRD4-BD2.
In the case of `Cn1cc(-c2ccc3c(nnn3C)c2Oc2ccc(F)cc2F)c2cc[nH]c2c1=O` [Example 9, 4-[4-(2,4-Difluorophenoxy)-1-methyl-1H-1,2,3-benzotriazol-5-yl]-6-methyl-1,6-dihydro-7H-pyrrolo[2,3-c]pyridin-7-one], the IC50 is not above 1000 nM in the assay on C-myc, not above 1000 nM in the assay on KMS.12.BM cells, less than 100 nM at BRD4-BD1 and less than 100 nM at BRD4-BD2.
Consider `Cn1cc(-c2ccc3[nH]nnc3c2Oc2ccc(F)cc2F)c2cn[nH]c2c1=O` [Example 10, 4-[4-(2,4-Difluorophenoxy)-1H-1,2,3-benzotriazol-5-yl]-6-methyl-1,6-dihydro-7H-pyrazolo[3,4-c]pyridin-7-one], for which the 50% inhibitory concentration (IC50) in the assay with C-myc is not above 1000 nM; in the assay with KMS.12.BM cells, not above 1000 nM; on BRD4-BD1, less than 100 nM; at BRD4-BD2, less than 100 nM.
Take `Cn1cc(-c2ccc3[nH]c(=O)[nH]c3c2OCC2CC2)c2cc[nH]c2c1=O` [Example 11, 4-(Cyclopropylmethoxy)-5-(6-methyl-7-oxo-6,7-dihydro-1H-pyrrolo[2,3-c]pyridin-4-yl)-1,3-dihydro-2H-benzimidazol-2-one]: the IC50 was not above 1000 nM with C-myc, not above 1000 nM with KMS.12.BM cells, less than 100 nM on BRD4-BD1 and less than 100 nM on BRD4-BD2.
For the molecule `Cn1cc(-c2cc(CNCC3CC3)c3[nH]c(=O)[nH]c3c2Oc2ccc(F)cc2F)c2cc[nH]c2c1=O` [Example 81, 7-{[(Cyclopropylmethyl)amino]methyl}-4-(2,4-difluorophenoxy)-5-(6-methyl-7-oxo-6,7-dihydro-1H-pyrrolo[2,3-c]pyridin-4-yl)-1,3-dihydro-2H-benzimidazol-2-one], the results for the IC50 with KMS.12.BM cells, at BRD4-BD1 and at BRD4-BD2 were not above 1000 nM, 100 to 1000 nM and less than 100 nM, respectively.
With `CCn1cc(-c2ccc3c(ncn3C)c2Oc2ccc(F)cc2F)c2cc[nH]c2c1=O` [Example 83, 4-[4-(2,4-Difluorophenoxy)-1-methyl-1H-benzimidazol-5-yl]-6-ethyl-1,6-dihydro-7H-pyrrolo[2,3-c]pyridin-7-one], the IC50 in the assay on KMS.12.BM cells is not above 1000 nM; on BRD4-BD1, 100 to 1000 nM; on BRD4-BD2 it was less than 100 nM.
Turning to `Cn1cc(-c2ccc3c(c2Oc2ccccc2)NC(=O)C(C)(C)O3)c2cc[nH]c2c1=O` [Example 95, 2,2-Dimethyl-6-(6-methyl-7-oxo-6,7-dihydro-1H-pyrrolo[2,3-c]pyridin-4-yl)-5-phenoxy-2H-1,4-benzoxazin-3(4H)-one], the results for the IC50 in the assay with KMS.12.BM cells, on BRD4-BD1 and at BRD4-BD2 were not above 1000 nM, less than 100 nM and less than 100 nM, respectively.
For the molecule `Cn1cc(-c2ccc3c([nH]c(=O)n3C)c2Sc2ccccc2)c2cc[nH]c2c1=O` [Example 97, 1-Methyl-5-(6-methyl-7-oxo-6,7-dihydro-1H-pyrrolo[2,3-c]pyridin-4-yl)-4-(phenylthio)-1,3-dihydro-2H-benzimidazol-2-one], the results for the IC50 in the assay with KMS.12.BM cells, at BRD4-BD1 and on BRD4-BD2 were not above 1000 nM, less than 100 nM and less than 100 nM, respectively.
For `CCSc1c(-c2cn(C)c(=O)c3[nH]ccc23)ccc2c1[nH]c(=O)n2C` [Example 98, 4-(Ethylthio)-1-methyl-5-(6-methyl-7-oxo-6,7-dihydro-1H-pyrrolo[2,3-c]pyridin-4-yl)-1,3-dihydro-2H-benzimidazol-2-one], the IC50 was not above 1000 nM in the assay on KMS.12.BM cells, less than 100 nM on BRD4-BD1 and less than 100 nM on BRD4-BD2.
For the molecule `CN1C(=O)COc2ccc(-c3cn(C)c(=O)c4[nH]ccc34)c(Oc3ccccc3)c21` [Example 100, 4-Methyl-6-(6-methyl-7-oxo-6,7-dihydro-1H-pyrrolo[2,3-c]pyridin-4-yl)-5-phenoxy-2H-1,4-benzoxazin-3(4H)-one], the IC50 in the assay on KMS.12.BM cells is not above 1000 nM; on BRD4-BD1, 100 to 1000 nM; at BRD4-BD2, less than 100 nM.
With `Cn1cc(-c2ccc3c(nc(CNC(=O)C4CCC4)n3C)c2Oc2ccccc2)c2cc[nH]c2c1=O` [Example 111, N-{[1-Methyl-5-(6-methyl-7-oxo-6,7-dihydro-1H-pyrrolo[2,3-c]pyridin-4-yl)-4-phenoxy-1H-benzimidazol-2-yl]methyl}cyclobutanecarboxamide], the 50% inhibitory concentration (IC50) in the assay on KMS.12.BM cells was not above 1000 nM; at BRD4-BD1, less than 100 nM; at BRD4-BD2 it was less than 100 nM.
Regarding `Cn1cc(-c2ccc3c(nc(CNC(=O)C4CC4)n3C)c2Oc2ccccc2)c2cc[nH]c2c1=O` [Example 112, N-{[1-Methyl-5-(6-methyl-7-oxo-6,7-dihydro-1H-pyrrolo[2,3-c]pyridin-4-yl)-4-phenoxy-1H-benzimidazol-2-yl]methyl}cyclopropanecarboxamide], the IC50 in the assay on KMS.12.BM cells is not above 1000 nM; at BRD4-BD1, less than 100 nM; on BRD4-BD2 it was less than 100 nM.
